According to patent publication US20090326029A1, “NON-CYCLIC SUBSTITUTED BENZIMIDAZOLE THIOPHENE BENZYL ETHER COMPOUNDS” (priority 2006, published 2009):
Structures can show the parent of a compound that is named as a salt.

How the values were obtained:
[1] = tested on: HCT116; assay: Inhibition of Cell Proliferation (methylene blue or CellTiter-Glo); format: cell-based; settings: Homo sapiens, HCT-116; HCT116 cell growth, seventy two hours post-treatment, 10% fetal bovine serum
Description: Exponentially growing cell lines of different tumor origins, cultured in appropriate media containing 10% fetal bovine serum at 37° C. in a 5% CO2 incubator were plated at low density (less than 2000 cells/well) in 96-well plates. Twenty four hours post-plating, cells were treated with different concentrations of test compounds ranging from 10 uM to 0.04 nM. Several wells were left untreated as a control. Seventy two hours post-treatment, cell numbers were determined using different techniques; 100 μl per well of methylene blue (Sigma M9140) (0.5% in 50:50 Ethanol:water), or 50-100 ul per well of CellTiter-Glo (Promega #G7573). For methylene blue staining, stain was incubated at room temperature for 30 minutes before plates were rinsed and dye solubilized in 1% N-lauroyl sarcosine, sodium salt, (Sigma L5125, in PBS). Plates were read on a microplate reader, measuring the OD at 620 nm. For CellTiter-Glo, plates were incubated at room temperature for 15 minutes and the chemiluminescent signal was read on the Victor V or Envison 2100 reader.
Percent inhibition of cell growth was expressed as percent proliferation relative to 100% proliferation (control). Concentration of test compound that inhibited 50% of cell growth (IC50) was determined by 4 parameter fit of data using XLfit, (value of no cell control was substracted from all samples for background). The data are shown in Table 1 and Table 2 below and represent a compilation of several different experiments each performed using the general parameters outlined above, although minor variations may have been employed in some instances. In Table 1 and Table 2, +=IC50>1+M; ++=IC50 0.5-1 μM: +++=IC50<0.5 μM.

[2] = target: T1, PLK1 kinase domain (Homo sapiens, UniProt P53350); assay: Assay for Inhibition of PLK1 (SPA kinase assay); format: biochemical; settings: 2 nM PLK1 kinase domain, 1 μM ATP, 1 μM substrate peptide, 22° C.; read-out: PLK1 pIC50 (converted)
T1 construct: 6xHis (leader MKKGHHHHHHD) (N); made in house; host or cells: baculovirus infected T. ni cells
T1 sequence (P53350 21-346): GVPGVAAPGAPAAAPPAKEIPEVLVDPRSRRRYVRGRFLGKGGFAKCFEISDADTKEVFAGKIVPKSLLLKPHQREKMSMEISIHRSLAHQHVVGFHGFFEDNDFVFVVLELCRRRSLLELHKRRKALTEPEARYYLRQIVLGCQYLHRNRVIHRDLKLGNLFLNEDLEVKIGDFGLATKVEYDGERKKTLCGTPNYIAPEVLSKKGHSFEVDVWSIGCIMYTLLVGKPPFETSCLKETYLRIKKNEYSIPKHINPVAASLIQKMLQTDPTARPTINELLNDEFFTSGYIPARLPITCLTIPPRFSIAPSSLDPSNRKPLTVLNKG
Description: 6× N-terminal His-tagged PLK kinase domain (amino acids 21-346 preceded by MKKGHHHHHHD) SEQ ID: No. 1. was prepared from baculovirus infected T. ni cells under polyhedrin promoter control. All procedures were performed at 4° C. Cells were lysed in 50 mM HEPES, 200 mM NaCl, 50 mM imidazole, 5% glycerol; pH 7.5. The homogenate was centrifuged at 14K rpm in a SLA-1500 rotor for 1 hr and the supernatant filtered through a 1.2 micron filter. The supernatant was loaded onto a Nickel chelating Sepharose (Amersham Pharmacia) column and washed with lysis buffer. Protein was eluted using 20%, 30% and 100% buffer B steps where buffer B was 50 mM HEPES, 200 mM NaCl, 300 mM imidazole, 5% glycerol; pH 7.5. Fractions containing PLK were determined by SDS-PAGE. Fractions containing PLK were diluted five-fold with 50 mM HEPES, 1 mM DTT, 5% glycerol; pH 7.5, then loaded on an SP Sepharose (Amersham Pharmacia) column. After washing the column with 50 mM HEPES, 1 mM DTT, 5% glycerol; pH 7.5, PLK was step eluted with 50 mM HEPES, 1 mM DTT, 500 mM NaCl; 5% glycerol; pH 7.5. PLK was concentrated using a 10 kDa molecular weight cutoff membrane and then loaded onto a Superdex 200 gel filtration (Amersham Pharmacia) column equilibrated in 25 mM HEPES, 1 mM DTT, 500 mM NaCl, 5% glycerol; pH 7.5. Fractions containing PLK were determined by SDS-PAGE. PLK was pooled, aliquoted and stored at −80° C. Samples were quality controlled using mass spectrometry, N-terminal sequencing and amino acid analysis.
All measurements were obtained under conditions where signal production increased linearly with time and enzyme. Test compounds were added to white 384-well assay plates (0.1 μL for 10 μL and some 20 μL assays, 1 μL for some 20 μL assays) at variable known concentrations in 100% DMSO. DMSO (I-5% final, as appropriate) and EDTA (65 mM in reaction) were used as controls. Reaction Mix was prepared as follows at 22° C.: • 25 mM HEPES, pH 7.2 • 15 mM MgCl2 • 1 μM ATP • 0.05 μCi/well ^33P-γ ATP (10 Ci/mMol) • 1 μM substrate peptide (Biotin-Ahx-SFNDTLDFD) SEQ ID: No. 2. • 0.15 mg/mL BSA • 1 mM DTT • 2 nM PLK1 kinase domain (added last)
Reaction Mix (10 or 20 μL) was quickly added to each well immediately following addition of enzyme via automated liquid handlers and incubated 1-1.5 h at 22° C. The 20 μL enzymatic reactions were stopped with 50 μL of stop mix (50 mM EDTA, 4.0 mg/mL Streptavidin SPA beads in Standard Dulbecco's PBS (without Mg^2+ and Ca^2+), 50 μM ATP) per well. The 10 μL reactions were stopped with 10 μL of stop mix (50 mM EDTA, 3.0 mg/mL Streptavidin-coupled SPA Imaging Beads (“LeadSeeker”) in Standard Dulbecco's PBS (without Mg^2+ and Ca^2+), 50 μM ATP) per well. Plates were sealed with clear plastic seals, spun at 500×g for 1 min or settled overnight, and counted in Packard TopCount for 30 seconds/well (regular SPA) or imaged using a Viewlux imager (LeadSeeker SPA). Signal above background (EDTA controls) was converted to percent inhibition relative to that obtained in control (DMSO-only) wells.

| SMILES | IC50 [1] | IC50 [2] |
| --- | --- | --- |
| C[C@@H](Oc1cc(-n2cnc3cc(-c4cnn(C)c4)ccc32)sc1C(N)=O)c1cccc(OCCN(C)C)c1Cl [Example 8, 3-{[(1R)-1-(2-chloro-3-{[2-(dimethylamino)ethyl]oxy}phenyl)ethyl]oxy}-5-[5-(1-methyl-1H-pyrazol-4-yl)-1H-benzimidazol-1-yl]-2-thiophenecarboxamide] | < 500 nM | < 100 nM |
| C[C@@H](Oc1cc(-n2cnc3cc(-c4cnn(C)c4)ccc32)sc1C(N)=O)c1cccc(OCCN)c1Cl [Example 7, 3-[((1R)-1-{3-[(2-aminoethyl)oxy]-2-chlorophenyl}ethyl)oxy]-5-[5-(1-methyl-1H-pyrazol-4-yl)-1H-benzimidazol-1-yl]-2-thiophenecarboxamide hydrochloride] | < 500 nM | < 100 nM |
| C[C@@H](Oc1cc(-n2cnc3cc(-c4cnn(C)c4)ccc32)sc1C(N)=O)c1cccc(OCCCO)c1Cl [Example 5] | < 500 nM | < 100 nM |
| C[C@@H](Oc1cc(-n2cnc3cc(-c4cnn(C)c4)ccc32)sc1C(N)=O)c1cccc(OCCO)c1Cl [Example 6, 3-[((1R)-1-{2-chloro-3-[(2-hydroxyethyl)oxy]phenyl}ethyl)oxy]-5-[5-(1-methyl-1H-pyrazol-4-yl)-1H-benzimidazol-1-yl]-2-thiophenecarboxamide] | < 500 nM | < 100 nM |
| COc1cc2ncn(-c3cc(O[C@H](C)c4cccc(OCCN)c4Cl)c(C(N)=O)s3)c2cc1OC [Example 3, 3-[((1R)-1-{3-[(2-aminoethyl)oxy]-2-chlorophenyl}ethyl)oxy]-5-[5,6-bis(methyloxy)-1H-benzimidazol-1-yl]-2-thiophenecarboxamide] | < 500 nM | < 100 nM |
| COc1cc2ncn(-c3cc(O[C@H](C)c4cccc(NCCO)c4Cl)c(C(N)=O)s3)c2cc1OC [Example 2, 5-[5,6-Bis(methyloxy)-1H-benzimidazol-1-yl]-3-[((1R)-1-{2-chloro-3-[(2-hydroxyethyl)amino]phenyl}ethyl)oxy]-2-thiophenecarboxamide] | < 500 nM |  |
| COc1cc2ncn(-c3cc(O[C@H](C)c4cc(C(=O)NCCN(C)C)ccc4Cl)c(C(N)=O)s3)c2cc1OC [Example 1, 5-[5,6-Bis(methyloxy)-1H-benzimidazol-1-yl]-3-({(1R)-1-[2-chloro-5-({[2-(dimethylamino)ethyl]amino}carbonyl)phenyl]ethyl}oxy)-2-thiophenecarboxamide formate] |  | 100 to 1000 nM |
| C[C@@H](Oc1cc(-n2cnc3ccccc32)sc1C(N)=O)c1cccc(OCCN)c1Cl [Example 4, 3-[((1R)-1-{3-[(2-Aminoethyl)oxy]-2-chlorophenyl}ethyl)oxy]-5-(1H-benzimidazol-1-yl)-2-thiophenecarboxamide] | < 500 nM | < 100 nM |
| C[C@@H](Oc1cc(-n2cnc3cc(-c4cnn(C)c4)ccc32)sc1C(N)=O)c1cccc(OCCCN(C)C)c1Cl [Example 9, 3-{[(1R)-1-(2-chloro-3-{[3-(dimethylamino)propyl]oxy}phenyl)ethyl]oxy}-5-[5-(1-methyl-1H-pyrazol-4-yl)-1H-benzimidazol-1-yl]-2-thiophenecarboxamide] | < 500 nM | < 100 nM |
